Experimental data from PubChem BioAssay (NCI).
Several values for one entry are separate records, joined by “and”; a condition that tells them apart may be missing. Equal values may be shown once.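 Values below derive from 48-hour exposures of cells grown in 96-well plates, with endpoints linearly interpolated between the two concentrations bracketing the appropriate inhibition level. At the GI50, growth is halved. TGI marks complete inhibition of growth.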

What was measured:
Assay in all cases: NCI anticancer screen, dose series, 48 h
ACHN renal = system: ACHN renal
EKVX NSCLC = system: EKVX NSCLC
HCT-116 colon = system: HCT-116 colon
K-562 leukemia = system: K-562 leukemia
KM12 colon = system: KM12 colon
LOX IMVI melanoma = system: LOX IMVI melanoma
NCI-H23 lung = system: NCI-H23 lung
OVCAR-3 ovarian = system: OVCAR-3 ovarian
PC-3 prostate = system: PC-3 prostate
SK-MEL-2 melanoma = system: SK-MEL-2 melanoma
SNB-75 CNS = system: SNB-75 CNS
SR leukemia = system: SR leukemia
TK-10 renal = system: TK-10 renal
UACC-257 melanoma = system: UACC-257 melanoma

| Compound | TGI (ACHN renal) | TGI (EKVX NSCLC) | TGI (HCT-116 colon) | TGI (K-562 leukemia) | TGI (KM12 colon) | TGI (LOX IMVI melanoma) | TGI (NCI-H23 lung) | TGI (OVCAR-3 ovarian) | TGI (PC-3 prostate) | TGI (SK-MEL-2 melanoma) | GI50 (SNB-75 CNS) | TGI (SNB-75 CNS) | TGI (SR leukemia) | TGI (TK-10 renal) | TGI (UACC-257 melanoma) | GI50 (HCT-116 colon) [µM] | GI50 (K-562 leukemia) [µM] | GI50 (LOX IMVI melanoma) [µM] | GI50 (SR leukemia) [µM] |
| --- | --- | --- | --- | --- | --- | --- | --- | --- | --- | --- | --- | --- | --- | --- | --- | --- | --- | --- | --- |
| COC(=O)C1OC(O[C@H]2CC[C@]3(C)[C@H]4CC=C5[C@@H]6CC(C)(C)CC[C@]6(C(=O)OC6OCC(O)C(O)C6OC6OC(C)C(OC7OCC(O)C(OC8OCC(O)C(O)C8O)C7O)C(OC7OCC(O)C(O)C7O)C6O)CC[C@@]5(C)[C@]4(C)CC[C@H]3C2(C)C)C(O)C(OC2OCC(O)C(O)C2O)C1O (some centres undefined) | 22.1 µM and 15.9 µM | 16.3 µM and 14.8 µM | > 100 µM and 23.3 µM | 14.9 µM and 19.1 µM | 10.7 µM and 10.8 µM | 26.5 µM and 21.6 µM | > 36.7 µM and 16.2 µM | > 100 µM and 45.9 µM | 18.9 µM and 16.4 µM | 9.16 µM and 7.73 µM | 5.19 µM and 11.7 µM | 25.3 µM and 26.3 µM | 4.76 µM and 7.55 µM | 70.4 µM and 24.4 µM | 8.58 µM and 10.8 µM | – | – | – | – |
| O=C(O)c1ccc(NC(NC(=O)C(C(F)(F)F)C(F)(F)F)(C(F)(F)F)C(F)(F)F)cc1 | > 100 µM | > 100 µM | > 100 µM | > 100 µM | – | > 100 µM | > 100 µM | – | > 100 µM | > 100 µM | – | > 100 µM | > 100 µM | > 100 µM | > 100 µM | – | – | – | – |
| CC(C)(C)Nc1noc(=O)n1C(C)(C)C | > 100 µM | > 100 µM | > 100 µM | > 100 µM | > 100 µM | > 100 µM | > 100 µM | > 100 µM | > 100 µM | > 100 µM | – | > 100 µM | > 100 µM | > 100 µM | > 100 µM | – | – | – | – |
| CN(NC(=O)c1cccs1)C1=NCCCCN1 | > 100 µM | > 100 µM | > 100 µM | > 100 µM | > 100 µM | > 100 µM | > 100 µM | > 100 µM | > 100 µM | > 100 µM | – | > 100 µM | > 100 µM | > 100 µM | > 100 µM | – | – | – | – |
| CN(C)CCN=C1Nc2ccccc2C(=S)N2CSCC12 (centres undefined) | > 100 µM | > 100 µM | > 100 µM | > 100 µM | > 100 µM | > 100 µM | – | > 100 µM | > 100 µM | > 100 µM | – | > 100 µM | > 100 µM | > 100 µM | > 100 µM | – | – | – | – |
| CC(C)NC(=O)OCc1c(COC(=O)NC(C)C)c(-c2cc[n+](COC(=O)C(C)(C)C)cc2)n2c1CCC2 | > 100 µM | > 100 µM | > 100 µM | > 100 µM | > 100 µM | > 100 µM | > 100 µM | > 100 µM | > 100 µM | > 100 µM | – | > 100 µM | > 100 µM | > 100 µM | > 100 µM | – | – | – | – |
| C=C(C)[C@H]1C=C[C@@H](OC(=O)c2cccnc2)[C@@]23CO[C@@](C)([C@H](OC(=O)c4cccnc4)[C@@]4(OC(C)=O)C[C@H](C)[C@H](OCCC)[C@@H]4[C@H]2OC(C)=O)[C@H]13 | > 15 µM | > 15 µM | > 15 µM | > 15 µM | > 15 µM | > 15 µM | > 15 µM | > 15 µM | > 15 µM | > 15 µM | – | > 15 µM | > 15 µM | > 15 µM | > 15 µM | – | – | – | – |
| O=c1[nH]nc(Cc2ccccc2)n1/N=C\c1ccccc1 | > 100 µM | > 100 µM | > 100 µM | > 100 µM | > 100 µM | > 100 µM | > 100 µM | > 100 µM | > 100 µM | > 100 µM | – | > 100 µM | > 100 µM | > 100 µM | > 100 µM | – | – | – | – |
| O=C(CSc1nc2[nH]ncc2c(=O)[nH]1)c1ccc(Cl)cc1 | > 100 µM | > 100 µM | > 100 µM | > 100 µM | > 100 µM | > 100 µM | > 100 µM | > 100 µM | > 100 µM | > 100 µM | – | > 100 µM | > 100 µM | > 100 µM | > 100 µM | – | – | – | – |
| COc1ccc(OCc2ccc3nc(-c4ccccc4)c(Cl)nc3c2)cc1 | > 100 µM | > 100 µM | > 100 µM | > 100 µM | > 100 µM | > 100 µM | 67.9 µM | > 100 µM | > 100 µM | > 100 µM | – | > 100 µM | > 100 µM | 55.3 µM | > 100 µM | – | – | – | – |
| CC1=C/C(=N\O)C(C(O)(C(F)(F)F)C(F)(F)F)C(C)(C)C1 (centres undefined) | > 10 µM | > 10 µM | > 10 µM | > 10 µM | > 10 µM | > 10 µM | > 10 µM | > 10 µM | > 10 µM | – | – | > 10 µM | > 10 µM | > 10 µM | > 10 µM | – | – | – | – |
| COc1ccc2[nH]cc([C@@H]3C4CCC(C4)[C@H]3NCc3cccc(CN[C@H]4C5CCC(C5)[C@@H]4c4c[nH]c5ccc(OC)cc45)c3)c2c1 | 2.55 µM and 3.16 µM | 2.91 µM and 2.89 µM | 1.08 µM and 2.02 µM | – | 0.95 µM and 1.34 µM | 0.328 µM and 0.605 µM | 3 µM and 2.93 µM | 2.89 µM and 3.02 µM | 2.93 µM and 2.59 µM | 2.91 µM and 2.99 µM | 0.785 µM | 2.59 µM and 2.03 µM | 0.78 µM and 1 µM | 2.87 µM and 3.03 µM | 3.15 µM and 2.74 µM | 0.351 | 0.375 | 0.184 | 0.28 |
| CC(=O)Nc1cc2c3c(c1)CCCN3CCC2 | > 100 µM | > 100 µM | > 100 µM | > 100 µM | > 100 µM | > 100 µM | > 100 µM | > 100 µM | > 100 µM | > 100 µM | – | > 100 µM | > 100 µM | > 100 µM | > 100 µM | – | – | – | – |
| O=P1(Oc2ccccc2)N(CCCl)CCN1c1ccccc1 (centres undefined) | > 100 µM | > 100 µM | > 100 µM | > 100 µM | > 100 µM | > 100 µM | > 100 µM | > 100 µM | > 100 µM | > 100 µM | – | > 100 µM | > 100 µM | > 100 µM | > 100 µM | – | – | – | – |
| COC(CC1(/C=C/O[Si](C(C)C)(C(C)C)C(C)C)C(=O)N(C)c2ccccc21)OC (centres undefined) | > 100 µM | > 100 µM | > 100 µM | > 100 µM | > 100 µM | > 100 µM | > 100 µM | > 100 µM | > 100 µM | > 100 µM | – | > 100 µM | > 100 µM | – | > 100 µM | – | – | – | – |
| Nc1ccn(C2CCC(CO)O2)c(=S)n1 (centres undefined) | > 100 µM | > 100 µM | > 100 µM | > 100 µM | > 100 µM | > 100 µM | > 100 µM | > 100 µM | > 100 µM | > 100 µM | – | > 100 µM | > 100 µM | > 100 µM | > 100 µM | – | – | – | – |
